Source: patent US10662189B2, “PDE4 inhibitor” (SHIJIAZHUANG SAGACITY NEW DRUG DEVELOPMENT CO., LTD., priority 2016, dated 2020)

Target: Recombinant human PDE4B (Homo sapiens (Human), UniProt Q07343)
Assay: Inhibitory activity against PDE 4B in vitro (fluorescence polarization, Transcreener AMP2/GMP2)
Type: biochemical
Details: 1 μM cAMP
Description: Inhibitory activity of the compounds against PDE 4B
The enzyme activity was indicated by measuring the AMP/GMP expression and tracing AMP/GMP antibody binding based on fluorescence polarization in the biological assay.
10 mM Tris-HCl (pH 7.5), 5 mM MgCl2, 0.01% Brij 35, 1 mM DTT and 1% DMSO.
Recombinant human PDE4B (Gen accession number: NM_002600; amino acid 305 end) was expressed by baculovirus in Sf9 insect cells using an N-terminal GST tag. MW=78 kDa.
Transcreener® AMP2/GMP2 antibody and AMP2/GMP2 AlexaFluor633 tracer
i) Recombinant human PDE4B and the enzyme substrate (1 μM cAMP) were dissolved in the newly-prepared buffer solution, respectively.
ii) The PDE4B buffer solution defined as above was transferred into the reaction wells.
iii) The compound which was dissolved in 100% DMSO was added to the reaction wells of the PDE4B buffer solution by ultrasonic oscillator (echo 550; nanoliter range) and incubated at room temperature for 10 minutes.
iv) The enzymatic buffer solution was then added to the reaction wells defined as above to initiate the reaction.
v) The reaction was incubated at room temperature for 1 hour.
vi) The reaction was terminated by adding detecting mixture (Transcreener® AMP2/GMP2 antibody and AMP2/GMP2 AlexaFluor633 tracer) and incubated for 90 minutes with slowly mixing. The measurement range of fluorescence polarization is Ex/Em=620/688.
The fluorescence polarization signal was converted into nM according to the AMP/GMP standard curve and the percent enzyme activity relative to DMSO calculated by Excel. GraphPad Prism was used to plot the curves (Drawing Medicine Icon).

Sequence of Recombinant human PDE4B (Q07343 305-736 limits assumed): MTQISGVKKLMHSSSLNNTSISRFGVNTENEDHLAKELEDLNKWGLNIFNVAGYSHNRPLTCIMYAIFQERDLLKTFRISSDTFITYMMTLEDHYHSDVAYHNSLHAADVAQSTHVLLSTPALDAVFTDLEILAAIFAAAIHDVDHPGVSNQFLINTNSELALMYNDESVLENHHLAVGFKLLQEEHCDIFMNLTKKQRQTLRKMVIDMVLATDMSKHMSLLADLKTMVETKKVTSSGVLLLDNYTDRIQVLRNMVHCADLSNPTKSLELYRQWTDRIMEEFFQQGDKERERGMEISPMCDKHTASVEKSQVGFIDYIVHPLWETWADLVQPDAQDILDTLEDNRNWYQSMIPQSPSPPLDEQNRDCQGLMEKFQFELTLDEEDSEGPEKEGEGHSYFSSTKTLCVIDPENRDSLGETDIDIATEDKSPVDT

| Structure (SMILES) | IC50 [nM] |
| --- | --- |
| CCOc1cc([C@@H](CS(C)(=O)=O)n2c(=O)n(C(C)C)c3cc(-c4ccccc4F)cnc32)ccc1OC [WX060] | 3.48 |
| CCOc1cc(C(CS(C)(=O)=O)n2c(=O)[nH]c3c(C)c(-c4ccccc4)cnc32)ccc1OC(F)F (centres unmarked) [WX077] | 1.01 |
| CCOc1cc([C@@H](CS(C)(=O)=O)n2c(=O)n(CC(F)F)c3cc(F)cnc32)ccc1OC [WX049] | 90.7 |
| COc1ccc(C(CS(C)(=O)=O)n2c(=O)[nH]c3c(-c4ccccc4F)ccnc32)cc1OC (single isomer, unassigned) [WX072] | 24.6 |
| CCOc1cc([C@@H](CS(C)(=O)=O)n2c(=O)n(CCO)c3cc(-c4ccccc4F)cnc32)ccc1OC [WX059] | 2.02 |
| CCOc1cc([C@@H](CS(C)(=O)=O)n2c(=O)n(C3CC3)c3cc(-c4ccccc4F)cnc32)ccc1OC [WX046] | 7.79 |
| CCOc1cc([C@@H](CS(C)(=O)=O)n2c(=O)n(CC)c3cc(-c4ccccc4F)cnc32)ccc1OC [WX058] | 1.99 |
| CCOc1cc([C@@H](CS(C)(=O)=O)n2c(=O)[nH]c3cc(C#N)cnc32)ccc1OC [WX022] | 26.5 |
| CCOc1cc([C@@H](CS(C)(=O)=O)n2c(=O)[nH]c3cc(-c4ccccc4F)cnc32)ccc1OC [WX009] | 0.86 |
| CCOc1cc([C@@H](CS(C)(=O)=O)n2c(=O)[nH]c3cc(C4=CCN(C(=O)OC(C)(C)C)CC4)cnc32)ccc1OC [WX040] | 10.4 |
| CCOc1cc([C@@H](CS(C)(=O)=O)n2c(=O)[nH]c3cc(-c4cncnc4)cnc32)ccc1OC [WX027] | 19.1 |
| CCOc1cc([C@@H](CS(C)(=O)=O)n2c(=O)n(C3CC3)c3cc(Br)cnc32)ccc1OC [WX045] | 6.5 |
| CCOc1cc([C@@H](CS(C)(=O)=O)n2c(=O)[nH]c3cc(-c4ccccc4OCC)cnc32)ccc1OC [WX031] | 0.861 |
| CCOc1cc(C(CS(C)(=O)=O)n2c(=O)[nH]c3cc(-c4ccccc4)cnc32)ccc1OC(F)F (centres unmarked) [WX074] | 1.03 |
| CCOc1cc([C@@H](CS(C)(=O)=O)n2c(=O)n(Cc3ccccc3F)c3cc(Cc4ccccc4F)cnc32)ccc1OC [WX024] | 2.7 |
| CCOc1cc([C@@H](CS(C)(=O)=O)n2c(=O)[nH]c3cc(-c4ccccc4CC)cnc32)ccc1OC [WX030] | 0.515 |
| CCOc1cc([C@@H](CS(C)(=O)=O)n2c(=O)n(CC#N)c3cc(-c4ccccc4F)cnc32)ccc1OC [WX061] | 0.989 |
| CCOc1cc([C@@H](CS(C)(=O)=O)n2c(=O)[nH]c3cc(Oc4ccccc4C(F)(F)F)cnc32)ccc1OC [WX043] | 2.53 |
| CCOc1cc([C@@H](CS(C)(=O)=O)n2c(=O)n(C)c3cc(OC)cnc32)ccc1OC [WX041] | 16.4 |
| CCOc1cc([C@@H](CS(C)(=O)=O)n2c(=O)[nH]c3cc(Oc4ncccn4)cnc32)ccc1OC [WX042] | 5.42 |
| CCOc1cc([C@@H](CS(C)(=O)=O)n2c(=O)[nH]c3cc(-c4c(C)ncnc4C)cnc32)ccc1OC [WX034] | 5.18 |
| CCOc1cc([C@@H](CS(C)(=O)=O)n2c(=O)[nH]c3cc(Cl)cnc32)ccc1OC [WX001] | 9.48 |
| CCOc1cc([C@@H](CS(C)(=O)=O)n2c(=O)[nH]c3cc(C4CC4)cnc32)ccc1OC [WX005] | 5.03 |

| Structure (SMILES) | IC50 [nM] |
| --- | --- |
| CCOc1cc(C(CS(C)(=O)=O)n2c(=O)[nH]c3c(C)c(-c4ccccc4F)cnc32)ccc1OC(F)F (centres unmarked) [WX076] | < 0.5 |
| CCOc1cc([C@@H](CS(C)(=O)=O)n2c(=O)n(C)c3cc(Br)cnc32)ccc1OC [WX050] | 11 |
| CCOc1cc([C@@H](CS(C)(=O)=O)n2c(=O)[nH]c3cc(-c4cccc(F)c4F)cnc32)ccc1OC [WX013] | 0.994 |
| CCOc1cc([C@@H](CS(C)(=O)=O)n2c(=O)[nH]c3cc(Cc4ccccc4F)cnc32)ccc1OC [WX006] | 1.8 |
| CCOc1cc([C@@H](CS(C)(=O)=O)n2c(=O)[nH]c3cc(-c4cccc(F)c4)cnc32)ccc1OC [WX011] | 3.4 |
| CCOc1cc([C@@H](CS(C)(=O)=O)n2c(=O)[nH]c3cc(-c4ccccc4)cnc32)ccc1OC [WX010] | 2.6 |
| CCOc1cc([C@@H](CS(C)(=O)=O)n2c(=O)[nH]c3cc(-c4ccccc4Cl)cnc32)ccc1OC [WX016] | < 0.5 |
| CCOc1cc([C@@H](CS(C)(=O)=O)n2c(=O)[nH]c3cc(C=C(C)C)cnc32)ccc1OC [WX007] | 2.81 |
| CCOc1cc([C@@H](CS(C)(=O)=O)n2c(=O)n(CCOC)c3cc(Br)cnc32)ccc1OC [WX051] | 9.1 |
| CCOc1cc([C@@H](CS(C)(=O)=O)n2c(=O)n(C3CCC3)c3cc(-c4ccccc4F)cnc32)ccc1OC [WX062] | 3.5 |
| CCOc1cc([C@@H](CS(C)(=O)=O)n2c(=O)[nH]c3cc(F)cnc32)ccc1OC [WX003] | 10.6 |
| CCOc1cc([C@@H](CS(C)(=O)=O)n2c(=O)n(CCS(C)(=O)=O)c3cc(Br)cnc32)ccc1OC [WX052] | 8.2 |
| CCOc1cc([C@@H](CS(C)(=O)=O)n2c(=O)[nH]c3cc(-c4ccccc4C(C)C)cnc32)ccc1OC [WX015] | 1.04 |
| CCOc1cc([C@@H](CS(C)(=O)=O)n2c(=O)[nH]c3cc(-c4ccccc4C#N)cnc32)ccc1OC [WX032] | 0.234 |
| CCOc1cc([C@@H](CS(C)(=O)=O)n2c(=O)[nH]c3cc(C(F)(F)F)cnc32)ccc1OC [WX002] | 5.66 |
| CCOc1cc([C@@H](CS(C)(=O)=O)n2c(=O)[nH]c3cc(-c4cscn4)cnc32)ccc1OC [WX036] | 6.27 |
| CCOc1cc([C@@H](CS(C)(=O)=O)n2c(=O)n(Cc3ccccc3F)c3cc(Br)cnc32)ccc1OC [WX053] | 1.49 |
| CCOc1cc([C@@H](CS(C)(=O)=O)n2c(=O)[nH]c3cc(CC(C)C)cnc32)ccc1OC [WX008] | 4.89 |
| CCOc1cc([C@@H](CS(C)(=O)=O)n2c(=O)[nH]c3cc(-c4ccncc4)cnc32)ccc1OC [WX035] | 15.5 |
| CCOc1cc([C@@H](CS(C)(=O)=O)n2c(=O)n(CC(F)(F)F)c3cc(Cl)cnc32)ccc1OC [WX048] | 19.8 |
| CCOc1cc([C@@H](CS(C)(=O)=O)n2c(=O)[nH]c3cc(-c4cn[nH]c4)cnc32)ccc1OC [WX019] | 3.38 |
| CCOc1cc([C@@H](CS(C)(=O)=O)n2c(=O)[nH]c3cc(CO)cnc32)ccc1OC [WX023] | 68.1 |
| CCOc1cc(C(CS(C)(=O)=O)n2c(=O)oc3cc(Br)cnc32)ccc1OC (centres unmarked) [WX070] | 73.8 |

| Structure (SMILES) | IC50 [nM] |
| --- | --- |
| CCOc1cc(C(CS(C)(=O)=O)N2C(=O)Cc3cc(Br)cnc32)ccc1OC (centres unmarked) [WX069] | 47.8 |
| CCOc1cc([C@@H](CS(C)(=O)=O)n2c(=O)[nH]c3cc(-c4c(F)cccc4F)cnc32)ccc1OC [WX033] | 0.671 |
| CCOc1cc([C@@H](CS(C)(=O)=O)n2c(=O)n(Cc3nccc(C)n3)c3cc(Br)cnc32)ccc1OC [WX054] | 6.9 |
| CCOc1cc([C@@H](CS(C)(=O)=O)n2c(=O)[nH]c3cc(-c4nnccc4C)cnc32)ccc1OC [WX039] | 21.7 |
| CCOc1cc([C@@H](CS(C)(=O)=O)n2c(=O)[nH]c3c(Cc4ccccc4F)ccnc32)ccc1OC [WX068] | 2.24 |
| CCOc1cc([C@@H](CS(C)(=O)=O)n2c(=O)[nH]c3cc(-c4ncccn4)cnc32)ccc1OC [WX026] | 4.51 |
| CCOC(=O)Cn1c(=O)n([C@H](CS(C)(=O)=O)c2ccc(OC)c(OCC)c2)c2ncc(Br)cc21 [WX056] | 3.4 |
| CCOc1cc([C@@H](CS(C)(=O)=O)n2c(=O)[nH]c3cc(C)cnc32)ccc1OC [WX020] | 65.8 |
| CCOc1cc([C@@H](CS(C)(=O)=O)n2c(=O)[nH]c3cc(Br)cnc32)ccc1OC [WX004] | 7.09 |
| CCOc1cc([C@@H](CS(C)(=O)=O)n2c(=O)[nH]c3cc(-c4nccnc4C)cnc32)ccc1OC [WX038] | 14.5 |
| CCOc1cc([C@@H](CS(C)(=O)=O)n2c(=O)[nH]c3cc(-c4ccc(F)cc4)cnc32)ccc1OC [WX012] | 3.9 |
| CCOc1cc([C@@H](CS(C)(=O)=O)n2c(=O)n(CC(F)F)c3cc(Cl)cnc32)ccc1OC [WX047] | 41.6 |
| CCOc1cc([C@@H](CS(C)(=O)=O)n2c(=O)n(Cc3cncc(C)n3)c3cc(Br)cnc32)ccc1OC [WX055] | 6.99 |
| CCOc1cc([C@@H](CS(C)(=O)=O)n2c(=O)[nH]c3cc(-c4cncnc4C)cnc32)ccc1OC [WX029] | 14.8 |
| CCOc1cc(C(CS(C)(=O)=O)n2c(=O)[nH]c3c(-c4ccccc4)ccnc32)ccc1OC(F)F (centres unmarked) [WX078] | < 0.5 |
| CCOc1cc([C@@H](CS(C)(=O)=O)n2c(=O)[nH]c3cc(-c4ccccc4C)cnc32)ccc1OC [WX014] | < 0.5 |
| CCOc1cc([C@@H](CS(C)(=O)=O)n2c(=O)[nH]c3cc(-c4ccccc4C(F)(F)F)cnc32)ccc1OC [WX018] | 0.391 |
| CCOc1cc([C@@H](CS(C)(=O)=O)n2c(=O)[nH]c3cc(-c4ccccc4OC)cnc32)ccc1OC [WX017] | 0.641 |
| CCOc1cc([C@@H](CS(C)(=O)=O)n2c(=O)n(-c3ccccc3)c3cc(Br)cnc32)ccc1OC [WX044] | 26.6 |
| CCOc1cc(C(CS(C)(=O)=O)n2c(=O)[nH]c3c(C)c(C)cnc32)ccc1OC(F)F (centres unmarked) [WX075] | 5.39 |
| CCOc1cc(C(CS(C)(=O)=O)n2c(=O)oc3cc(-c4ccccc4F)cnc32)ccc1OC (centres unmarked) [WX071] | 0.74 |
| CCOc1cc([C@@H](CS(C)(=O)=O)n2c(=O)[nH]c3cc(-c4cccnc4)cnc32)ccc1OC [WX025] | 9.53 |
